Reference: patent publication US20070213354A1, “Compositions and Methods for the Treatment of Multiple Sclerosis” (AmpliMed Corporation, priority 2006, published 2007)

Assays:
[1] = system: L1210 resistant; details: murine leukemia L1210 resistant, P-glycoprotein producing; MTT, continuous exposure; cited from earlier work
[2] = system: L1210 sensitive; details: murine leukemia L1210 sensitive to standard cytotoxic agents; MTT, continuous exposure; cited from earlier work
[3] = system: neonatal rat myocytes; details: 1 hour drug concentration that reduces ATP/protein ratio to 50% of untreated control myocytes; read-out: IC50 Cardiotox; cited from earlier work
[4] = system: acute monophasic EAE; assay: Acute monophasic EAE, drug administration beginning with immunization; format: in vivo, C57/BL6 mice; details: for Max. Clinical Score: scale 0 to 5
Excerpt: (§1) An acute monophasic form of EAE, induced by the administration of MOG, mimics the progressive clinical patterns of MS seen in human patients and can provide an opportunity to investigate a therapy's ability to prevent progression to symptomatic disease, to prevent or reduce the disability that would otherwise be caused by disease progression, or to treat one or more clinical symptoms of MS. The induction of the acute monophasic form of EAE in C57/BL6 mice can be achieved as described in Gaupp et al., Am J Pathol. 162(1): 139-150 (2003). Similarly, a relapsing-remitting form of EAE, induced by the administration of PLP, mimics the more common relapsing-remitting form of MS seen in humans and can provide an opportunity to investigate potential therapies to reduce the frequency, severity, or duration of a disease relapse, to otherwise prevent disability caused by disease progression, or to relieve one or more clinical symptoms of MS in human patients. The induction of the relapsing-remitting form of EAE in SJL/J mice can be achieved as described in Fridkis-Hareli et al., J Clin Invest. 109(12): 1635-1643 (2002).
(§2) Acute monophasic EAE was induced in C57/BL6 mice by subcutaneous flank and tail base injections of 200 μg of MOG in complete Freund's adjuvent containing 500 μg of heat-inactivated mycobacterium tuberculosis on day 0, supplemented by intravenous injections of 200 ng of pertussis toxin on day 2.
With reference first to FIGS. 1-3, beginning on the day of immunization for acute monophasic EAE, nine groups of mice (each group containing 5 or 6 individuals) were treated with either ethonafide (AMP; a compound of Formula (II) wherein the dibenzisoquinoline ring structure is substituted at position 6 with —OCH2CH3) or mitoxantrone at a dose of 0.125 mg/kg, 0.25 mg/kg, or 0.5 mg/kg daily for seven days, or were left untreated to be used as a control at each respective dose level. Each drug was administered intraperitoneally in phosphate buffered saline (untreated mice received i.p. administrations of the PBS vehicle). The mice were observed daily for clinical signs of disease, and were scored (by multiple investigators) on an arbitrary scale from 0 to 5 in increments of 0.5 according to the following parameters: 0—no clinical signs of disease; 1—flaccid tail; 2—hind limb weakness or abnormal gait; 3—complete hind paralysis; 4—complete hind paralysis with forelimb weakness or paralysis; and 5-moribund or deceased. The incidence of disease in the immunized mice, the day of disease onset, the maximum clinical score, and the mean clinical score over a 30 day observation period were determined, and the results are shown in Table 2.

[5] = system: acute monophasic EAE; assay: Acute monophasic EAE, drug administration beginning on day 11 post immunization; format: in vivo, C57/BL6 mice; details: for Mean Clinical Score / Day of Onset / Incidence: 32 day observation; for Mean Clinical Score: mice that had evidence of disease; for Max. Clinical Score: scale 0 to 5
Excerpt: as §1, §2
With reference now to FIG. 4, five groups of mice (each group containing 5 or 6 individuals), immunized for acute monophasic EAE as described hereinbefore, were treated with either ethonafide (AMP) or mitoxantrone at a dose of 0.5 mg/kg or 1.0 mg/kg beginning on day 11 following immunization, for seven days, or were left untreated to be used as a control. Each drug was administered intraperitoneally in phosphate buffered saline (untreated mice received i.p. administrations of the PBS vehicle). The mice were observed daily for clinical signs of disease and were scored as indicated hereinbefore on a clinical scale from 0 to 5. The incidence of disease in the immunized mice, the day of disease onset, the maximum clinical score, and the mean clinical score over a 32 day observation period were determined, and the results are shown in Table 3.

[6] = 0.125 mg/kg i.p. daily for seven days from day of immunization, 30 day observation
[7] = 0.5 mg/kg i.p. daily for seven days from day of immunization, 30 day observation
[8] = 0.5 mg/kg i.p. for seven days beginning on day 11 following immunization
[9] = 1.0 mg/kg i.p. for seven days beginning on day 11 following immunization

Row | Compound | IC50 [1] [nM] | IC50 [2] [nM] | IC50 [3] [µM] | other results
1 | CN(C)CCN1C(=O)c2cccc3cc4ccc([N+](=O)[O-])cc4c(c23)C1=O [*10-NO2] | 25 | 25 | 0.801 | –
2 | CCOc1ccc2cc3cccc4c3c(c2c1)C(=O)N(CCN(C)C)C4=O [*10-OC2H5] | 50 | 25 | 11.3 | –
3 | COc1ccc2cc3cccc4c3c(c2c1)C(=O)N(CCN(C)C)C4=O [*10-OCH3] | 52 | 21 | 9.1 | –
4 | CN(C)CCN1C(=O)c2cccc3cc4ccc(O)cc4c(c23)C1=O [*10-OH] | 540 | 189 | > 27 | –
5 | CN(C)CCN1C(=O)c2cccc3cc4cccc(Cl)c4c(c23)C1=O [*11-Cl] | 617 | 1780 | 8.23 | –
6 | CN(C)CCN1C(=O)c2cccc3cc4cccc(N)c4c(c23)C1=O [*11-NH2] | 678 | 678 | 27.1 | –
7 | CC(=O)Nc1cccc2cc3cccc4c3c(c12)C(=O)N(CCN(C)C)C4=O [*11-NHCOCH3] | 2430 | 243 | > 22.5 | –
8 | CN(C)CCN1C(=O)c2cccc3cc4cccc([N+](=O)[O-])c4c(c23)C1=O [*11-NO2] | 50 | 23 | 8.65 | –
9 | CN(C)CCN1C(=O)c2cccc3cc4cccc(O)c4c(c23)C1=O [*11-OH] | 189 | 189 | 15.4 | –
10 | COc1cccc2c1C(=O)c1c(O)c3c(c(O)c1C2=O)C[C@@](O)(C(=O)CO)C[C@@H]3O[C@H]1C[C@H](N)[C@H](O)[C@H](C)O1 [Doxorubicin, reference compound] | 3880 | 35 | 10.2 | –
11 | O=C1c2c(O)ccc(O)c2C(=O)c2c(NCCNCCO)ccc(NCCNCCO)c21 [Mitoxantrone, reference compound] | 39 | 10 | 7.74 | Day of Onset [4, 6]: 12.5 ± 0.67; Incidence [4, 6]: 100%; Mean Clinical Score ([4]; 0.125 mg/kg i.p. daily for seven days from day of immunization, 30 day observation, mice that had evidence of disease): 1.63 ± 0.59; Max. Clinical Score ([4]; 0.125 mg/kg i.p. daily for seven days from day of immunization): 3.1 ± 0.33; Incidence ([4]; 0.25 mg/kg i.p. daily for seven days from day of immunization, 30 day observation): 40%; Mean Clinical Score ([4]; 0.25 mg/kg i.p. daily for seven days from day of immunization, 30 day observation, mice that had evidence of disease): 0.21 ± 0.07; Incidence [4, 7]: 0%; Mean Clinical Score [4, 7]: 0; Max. Clinical Score ([4]; 0.5 mg/kg i.p. daily for seven days from day of immunization): 0; Mean Clinical Score ([5]; 0.5 mg/kg i.p. for seven days beginning on day 11): 0.59 ± 1.67; Day of Onset [5, 8]: 12.2 ± 0.68; Incidence [5, 8]: 100%; Max. Clinical Score [5, 8]: 2.4 ± 0.36; Mean Clinical Score ([5]; 1.0 mg/kg i.p. for seven days beginning on day 11): 0.51 ± 0.21; Day of Onset [5, 9]: 13.3 ± 0.55; Incidence [5, 9]: 60%; Max. Clinical Score [5, 9]: 2.8 ± 0.36
